Data on ten molecules can be found in publication PMC9598561, “Antileishmanial Activity of 4,8-Dimethoxynaphthalenyl Chalcones on Leishmania amazonensis” (Antibiotics, 2022).

For data set [1], the system named is L. amazonensis promastigotes. Put plainly: Antipromastigote activity, MTT assay. The format is cell-based, Leishmania amazonensis. The note with it: for SI = selectivity index (CC50/IC50): CC50 macrophages / IC50 promastigotes; for IC50: Leishmania amazonensis, L. amazonensis promastigotes, 24 h, MTT, IC50 ± SEM. The method, then:
The promastigote forms of L. amazonensis (MHOM/BR/1989/166MJO) were maintained in culture medium 199 (GIBCO, Invitrogen, New York, NY, USA) pH 7.18–7.22 supplemented with 10% fetal bovine serum (FBS) (GIBCO, Invitrogen, New York, NY, USA), 1M HEPES buffer, 1% human urine, 1% L-glutamine, 10 µg/mL streptomycin and 10 U/mL penicillin (GIBCO, Invitrogen, NY, USA) and 10% sodium bicarbonate. The parasite culture was maintained in a B.O.D. incubator at 24 °C in 25 cm^2 culture flasks. In all experiments, promastigote forms in the stationary growth phase were used (5-day culture).
The activities were evaluated by the 3-(4,5-dimethylthiazol-2-yl)-2,5-diphenyltetrazolium bromide (MTT) assay. L. amazonensis promastigote forms (10^6 cells/mL) were placed in 96-well plates and treated with the chalcone derivatives (4a–i) at different concentrations (10, 25, 50, and 130 µM) and maintained in a B.O.D incubator for 24 h at 24 °C. A solution of MTT (10 μL of a 5 mg/mL stock) (Sigma-Aldrich, St. Louis, MO, USA) was added to each well, and after 4 h, the plates were evaluated at λ = 550 nm using a spectrophotometer (Thermo Fisher Scientific, Multiskan GO, Waltham, MA, USA). L. amazonensis promastigotes maintained in culture M199 medium without treatment or with 0.01% DMSO (Sigma-Aldrich, St. Louis, MO, USA) served as negative and vehicle controls. 1 μM amphotericin B (AmB) (Sigma-Aldrich, St. Louis, MO, USA) was used as a positive control. The results of antipromastigote activities were expressed as half-maximal inhibitory concentrations for 50% of parasites (IC50) in μM. The IC50 values were calculated as the average of three independent experiments performed in duplicates.
(§1) The half-maximal inhibitory concentration for 50% of parasites (IC50) was determined on L. amazonensis promastigotes treated with the nine compounds, and the cytotoxic concentration that causes the death of 50% of cells (CC50) on murine macrophages (J774A.1). IC50 and CC50 were calculated by nonlinear regression using GraphPad Prism statistical software (GraphPad Software, Inc., USA, 500.288). The tested compounds’ selectivity index was expressed as SI = CC50 on […] macrophages/IC50 on promastigotes forms.
On the technique in general: Tetrazolium assays rely on reduction of a dye to a coloured formazan, in cell work by metabolically active cells.

A short description of data set [2]: Cytotoxicity on murine macrophages, MTT assay. The format is cell-based. The note with it: mouse, J774A.1 macrophage cell line, J774A.1 macrophages, CC50 ± SEM. The method, then:
The cytotoxic effect of compounds 4a–i on murine macrophage cell lines J774A.1 (TIB-67, ATCC, Manassas, VA, USA) was assessed using the MTT assay (3-(4,5-dimethylthiazol-2-yl)-2,5-diphenyltetrazolium bromide) (Sigma-Aldrich, St. Louis, MO, USA), [14]. Macrophages were seeded in 96-well plates at a density of 10^4 cells/well and were cultured with 4a–i at different concentrations (10, 25, 50, and 130 µM) for 24 h (37 °C, 5% CO2). The cells were washed, MTT (5 mg/mL) added, and the cells were incubated for 4 h. The MTT product was diluted with 100 μL of DMSO (Sigma-Aldrich, St. Louis, MO, USA) and analyzed at 550 nm in a spectrophotometer (Thermo Fisher Scientific, Multiskan GO, Waltham, MA, USA) at 550 nm. 0.5% H2O2 (Merck, Darmstadt, Germany) was used as a positive control. The results were expressed as the percentage of viable cells compared to the control group. The cytotoxic concentration for 50% of the cells (CC50) was calculated by nonlinear regression to the dose-response curve using GraphPad Prism statistical software (GraphPad Software, Inc., San Diego, CA, USA, 500.288).
as §1

Data set [3] concerns L. amazonensis intracellular amastigotes. Nature of the data set: Antiamastigote assay in infected J774A.1 macrophages. The format is cell-based, Leishmania amazonensis. The note with it: 24 h; for reduction of infected macrophages: mean ± SEM. The method, then:
Murine macrophages J774A.1 (5 × 10^5 cell/mL) were cultivated in 24-well plates. After infection, the non-internalized promastigotes were removed by washing with PBS, and the adherent macrophages infected were treated with the most promising chalcone (4f) in non-cytotoxic concentrations (10, 25, 50, and 130 μM) for 24 h (37 °C, 5% CO2). RPMI 1640 medium, DMSO (0.01%), and AmB (1 μM) were used as a negative control, vehicle, and positive control, respectively. Then, cells were stained with Leishman (Laborclin, Pinhais, Brazil), and 20 fields were analyzed by increased immersion (1000× magnification) using an optical microscope (Olympus BX41, Olympus Optical Co., Ltd., Tokyo, Japan) to determine the % of infected macrophages and the number of amastigotes/cells.

The subject of data set [4] is L. amazonensis promastigotes. Put plainly: ROS generation in promastigotes (H2DCFDA probe). The format is cell-based, Leishmania amazonensis. The conditions noted are these: 3.3 μM and 6.6 μM, 24 h. The method, then: As a positive control, hydrogen peroxide (0.4% H2O2) was used, and the vehicle (DMSO 0.01%) was used for a negative control. ROS was measured as an increase in fluorescence caused by converting the non-fluorescent dye to the fluorescent 2.7-dichlorofluorescein, with an excitation wavelength of 488 nm and emission of 530 nm in a fluorescence microplate reader (Victor X3, PerkinElmer, Turku, Finland).

Data set [5] concerns L. amazonensis promastigotes. Put plainly: Mitochondrial membrane potential (TMRE). Format: cell-based, Leishmania amazonensis. The conditions noted are these: 3.3 μM and 6.6 μM, 24 h. The method, then: To evaluate if the most promising chalcone (4f) alters the mitochondrial membrane potential, we conducted an assay using a tetramethylrhodamine ethyl ester (TMRE) staining (Sigma-Aldrich, St. Louis, MO, USA). […] Carbonyl cyanide m-chlorophenylhydrazone (100 μM) (CCCP) (Sigma-Aldrich, St. Louis, MO, USA) was used as a positive control, and the vehicle (DMSO 0.01%) was used as a negative control.

Data set [6] concerns L. amazonensis promastigotes. Nature of the data set: SEM and TEM morphological and ultrastructural analysis. The format is cell-based, Leishmania amazonensis. The conditions noted are these: 3.3 μM and 6.6 μM, 24 h. The method, then:
SEM was performed to analyze morphological changes in the cell surface topography. […] After the treatment, the parasites were fixed in 2.5% glutaraldehyde (Merck, Darmstadt, Germany) in 0.1 M sodium cacodylate buffer (Sigma-Aldrich, St. Louis, MO, USA) and adhered to coverslips covered with poly-L-lysine (Sigma-Aldrich, St. Louis, MO, USA) for 60 min. Parasites were dehydrated with increasing ethanol (Synth, Diadema, Brazil) concentrations (30–100%), submitted to critical point drying (Baltec SCD-030), metalized with gold, and visualized on a high-resolution double beam electron microscope FEI SCIOS.
To evaluate the ultrastructural changes by TEM, promastigotes were treated and fixed as described above. After the samples were post-fixed with 1% OsO4 (Sigma-Aldrich, St. Louis, MO, USA), 0.8% potassium ferrocyanide (Sigma-Aldrich, St. Louis, MO, USA), and 10.0 mM CaCl2 (Synth, Diadema, Brazil) in 0.1 M sodium cacodylate buffer for 1 h at room temperature and protected from light. Samples were washed in 0.1 M sodium cacodylate buffer, dehydrated in increased concentration of acetone (Synth, Diadema, Brazil) (50–100%), including in EPON resin, and polymerized at 60 °C for 72 h. […]

As to `COc1cccc(/C=C/C(=O)c2ccc(OC)c3cccc(OC)c23)c1` [Compound 4b, (E)-1-(4,8-dimethoxynaphthalen-1-yl)-3-(3-methoxyphenyl)prop-2-en-1-one], in data set [1], the “SI = selectivity index (CC50/IC50)” value was determined as 3.7 and inhibition was half-maximal at 67.1 ± 0.16 µM (IC50). The CC50 (usually the concentration giving 50% cytotoxicity) at 24 h in data set [2] was found to be 246.7 ± 0.03 µM.
As for `COc1ccc(C(=O)/C=C/c2ccc([N+](=O)[O-])cc2)c2c(OC)cccc12` [Compound 4f, (E)-1-(4,8-dimethoxynaphthalen-1-yl)-3-(4-nitrophenyl)prop-2-en-1-one], in data set [1], the “SI = selectivity index (CC50/IC50)” value is 112.6. The IC50 – broadly, the concentration at which inhibition is half-maximal – was 3.3 ± 0.34 µM in data set [1] and 18.5 ± 1.19 µM in data set [3] (Leishmania amazonensis, J774.A1, L. amazonensis-infected J774A.1 macrophages). In addition, the CC50 at 24 h in data set [2] stood at 372.9 ± 0.04 µM. The “reduction of number of amastigotes per macrophage” value in data set [3] (10 μM, compared to controls) stood at 14.14 ± 0.04%; in data set [3] (25 μM, compared to controls), 36.20 ± 0.02%; in data set [3] (50 μM, compared to controls) it was 39.33 ± 0.03%. Further, the “reduction of infected macrophages” value is listed as 23.81 ± 1.07% in data set [3] (10 μM), 35.78 ± 1.59% in data set [3] (25 μM), 42.15 ± 0.49% in data set [3] (50 μM) and 63.04 ± 0.35% in data set [3] (130 μM). The “intracellular ROS levels (DCF fluorescence)” value in data set [4] is recorded as “substantial rise in the intracellular ROS levels”. For the same molecule, the “mitochondrial membrane potential (ΔΨm), TMRE” value in data set [5] is “reduces the potential of the mitochondrial membrane (ΔΨm)”. Besides, the “ultrastructural changes (TEM)” value in data set [6] was “an increase in autophagic vacuoles, lipid-storage bodies accumulation, mitochondrial swelling, and nuclear alterations”.
For `COc1ccc(C(=O)/C=C/c2cccc([N+](=O)[O-])c2)c2c(OC)cccc12` [Compound 4g, (E)-1-(4,8-dimethoxynaphthalen-1-yl)-3-(3-nitrophenyl)prop-2-en-1-one], in data set [1], the “SI = selectivity index (CC50/IC50)” value stood at 23.2 and half-maximal inhibition (IC50) required 14.5 ± 0.09 µM. Further, the CC50 at 24 h in data set [2] is 366 ± 0.13 µM.
The corresponding values for `COc1ccc(C(=O)/C=C/c2ccc(Br)cc2)c2c(OC)cccc12` [Compound 4i, (E)-3-(4-bromophenyl)-1-(4,8-dimethoxynaphthalen-1-yl)prop-2-en-1-one] are 17.8, 24.3 ± 0.05 µM and 434 ± 0.05 µM.
Regarding `C[C@@H]1[C@H](O)[C@@H](C)/C=C/C=C/C=C/C=C/C=C/C=C/C=C/[C@H](O[C@@H]2O[C@H](C)[C@@H](O)[C@H](N)[C@@H]2O)C[C@@H]2O[C@](O)(C[C@@H](O)C[C@@H](O)[C@H](O)CC[C@@H](O)C[C@@H](O)CC(=O)O[C@H]1C)C[C@H](O)[C@H]2C(=O)O` [AmB, Amphotericin B, reference compound], in data set [1], the “SI = selectivity index (CC50/IC50)” value stood at 73.17 and it took 0.68 ± 0.21 µM to reach half-maximal inhibition (IC50). The molecule also registered a half-maximal cytotoxic concentration (CC50) at 24 h in data set [2] of 49.7 µM. Besides, in data set [3] (1 μM, positive control), the “reduction in the percentage of infected macrophages” value is 95.25 ± 0.65% and the “reduction of number of amastigotes per macrophage” value was 89.55 ± 0.05%.
Take `COc1ccc(/C=C/C(=O)c2ccc(OC)c3cccc(OC)c23)cc1` [Compound 4a, (E)-1-(4,8-dimethoxynaphthalen-1-yl)-3-(4-methoxyphenyl)prop-2-en-1-one]: in data set [1], the “SI = selectivity index (CC50/IC50)” value is given as 1.7 and the IC50 was 264.1 ± 0.12 µM. In data set [2], the CC50 at 24 h came out at 414.8 ± 0.04 µM.
In the case of `COc1ccc(C(=O)/C=C/c2ccc(Cl)c(Cl)c2)c2c(OC)cccc12` [Compound 4c, (E)-3-(3,4-dichlorophenyl)-1-(4,8-dimethoxynaphthalen-1-yl)prop-2-en-1-one], in data set [1], the “SI = selectivity index (CC50/IC50)” value was 14.5 and the half-inhibitory concentration (IC50) is 13.4 ± 0.08 µM. It took 194.3 ± 0.06 µM to reach half-maximal cytotoxicity in data set [2] (CC50 at 24 h).
Regarding `COc1ccc(C(=O)/C=C/c2ccc(Cl)cc2Cl)c2c(OC)cccc12` [Compound 4e, (E)-3-(2,4-dichlorophenyl)-1-(4,8-dimethoxynaphthalen-1-yl)prop-2-en-1-one], the 50% inhibitory concentration (IC50) in data set [1] came out at 37.7 ± 0.06 µM. The 50% cytotoxic concentration (CC50) at 24 h in data set [2] came out at 561.1 ± 0.03 µM.
For `COc1ccc(C(=O)/C=C/c2ccccc2)c2c(OC)cccc12` [Compound 4h, (E)-1-(4,8-dimethoxynaphthalen-1-yl)-3-phenylprop-2-en-1-one], in data set [1], the “SI = selectivity index (CC50/IC50)” value stood at 33.44 and it took 26.1 ± 0.09 µM to reach half-maximal inhibition (IC50). The molecule also came in with a CC50 at 24 h in data set [2] of 872.3 ± 0.134 µM.
`COc1ccc(C(=O)/C=C/c2c(Cl)cccc2Cl)c2c(OC)cccc12` [Compound 4d, (E)-3-(2,6-dichlorophenyl)-1-(4,8-dimethoxynaphthalen-1-yl)prop-2-en-1-one]: the IC50 in data set [1] was 94.1 ± 0.06 µM. In data set [2], this molecule displayed a CC50 at 24 h of 126.8 ± 0.09 µM.
